Source: US20250011300A1, “PIPERAZINYLSULFONYLARYL COMPOUNDS FOR TREATMENT OF BACTERIAL INFECTIONS” (Hoffmann-La Roche Inc., priority 2021, published 2025)
Values after ≈ are worked out from the molar mass of the structure shown.

Experiments:
[1] = biological target: Escherichia coli LpxH (UDP-2,3-diacylglucosamine hydrolase) (Escherichia coli (strain K12), UniProt P43341); assay: 50% Inhibitory Concentration (IC50) to LpxH, UMP/CMP-Glo Glycosyltransferase Assay kit; assay type: biochemical
In short: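 LpxH hydrolysis of UDP-2,3-diacylglucosamine to lipid X and UMP; UMP produced is converted to ATP and quantified by luciferase luminescence (UMP/CMP-Glo). Inhibition taken from reduced light output.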

E. coli (ATCC 25922) = assay: Minimal Inhibitory Concentration (MIC) assay, E. coli; assay type: cell-based; conditions: Escherichia coli, ATCC25922; E. coli ATCC 25922, CAMHB, 20 hours at 35° C.; read-out: MIC E. coli ATCC 25922
In short: (§1)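 Broth microdilution in cation-adjusted Mueller Hinton broth, inoculum 5×10^5 CFU/mL, compounds 2-fold serially diluted from 10 mM DMSO stocks. Plates incubated 20 hours at 35° C in ambient air; MIC (μg/mL) is the lowest concentration preventing visible growth.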

[2] = system: K. pneumonia (ATCC 43816); assay: Minimal Inhibitory Concentration (MIC) assay, K. pneumonia; assay type: cell-based; conditions: Klebsiella pneumoniae; K. pneumoniae ATCC43816, CAMHB, 20 hours at 35° C.; read-out: MIC K. pneumoniae ATCC43816
In short: as §1

Escherichia coli LpxH (UDP-2,3-diacylglucosamine hydrolase), sequence (P43341 whole entry): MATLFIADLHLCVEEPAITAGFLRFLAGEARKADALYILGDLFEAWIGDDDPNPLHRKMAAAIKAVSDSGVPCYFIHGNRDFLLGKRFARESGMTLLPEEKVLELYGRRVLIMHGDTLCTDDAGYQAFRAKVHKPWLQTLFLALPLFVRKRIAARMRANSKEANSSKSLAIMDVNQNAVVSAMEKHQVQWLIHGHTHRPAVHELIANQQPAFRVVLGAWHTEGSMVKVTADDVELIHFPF

Row | Compound | IC50 [1] | MIC (E. coli (ATCC 25922)) | MIC [2]
1 | CN(C)CC1CN(CC2CC(=O)N(c3ccc(S(=O)(=O)N4CCN(c5cc(C(F)(F)F)cc(Cl)n5)CC4)cc3)C2)C1 (stereo not drawn) [Example 37, 1-[4-[4-[6-Chloro-4-(trifluoromethyl)-2-pyridyl]piperazin-1-yl]sulfonylphenyl]-4-[[3-[(dimethylamino)methyl]azetidin-1-yl]methyl]pyrrolidin-2-one] | 48.8 nM | 2.64 µg/mL (≈ 4.29 µM) | 5.27 µg/mL (≈ 8.57 µM)
2 | CNC1CC(=O)N(c2ccc(S(=O)(=O)N3CCN(c4cc(C(F)(F)F)cc(Cl)n4)CC3)cc2)C1 (stereo not drawn) [Example 44, 1-[4-[4-[6-chloro-4-(trifluoromethyl)-2-pyridyl]piperazin-1-yl]sulfonylphenyl]-4-(methylamino)pyrrolidin-2-one] | 197 nM | 1.73 µg/mL (≈ 3.34 µM) | 3.47 µg/mL (≈ 6.7 µM)
3 | NC1CC(=O)N(c2ccc(S(=O)(=O)N3CCN(c4cc(C(F)(F)C5CC6CCC(C5)O6)cc(Cl)n4)CC3)cc2)C1 (stereo not drawn) [Example 100, 4-Amino-1-[4-[4-[6-chloro-4-[difluoro(8-oxabicyclo[3.2.1]octan-3-yl)methyl]-2-pyridyl]piperazin-1-yl]sulfonylphenyl]pyrrolidin-2-one] | < 3.36 nM | 1.86 µg/mL (≈ 3.12 µM) | 0.93 µg/mL (≈ 1.56 µM)
4 | N[C@H]1CN(c2ccc(S(=O)(=O)N3CCN(c4cc(C(F)(F)F)cc(Cl)n4)CC3)cc2)C1=O [Example 7, (3S)-3-amino-1-[4-[4-[6-chloro-4-(trifluoromethyl)-2-pyridyl]piperazin-1-yl]sulfonylphenyl]azetidin-2-one] | 63.3 nM | 3.78 µg/mL (≈ 7.72 µM) | 5.66 µg/mL (≈ 11.6 µM)
5 | NCC1CN(c2ccc(S(=O)(=O)N3CCN(c4cc(C(F)(F)c5ccccc5)cc(Cl)n4)CC3)cc2)C(=O)O1 (stereo not drawn) [Example 88, 5-(Aminomethyl)-3-[4-[4-[6-chloro-4-[difluoro(phenyl)methyl]-2-pyridyl]piperazin-1-yl]sulfonylphenyl]oxazolidin-2-one] | 13.8 nM | 0.26 µg/mL (≈ 0.45 µM) | 0.53 µg/mL (≈ 0.917 µM)
6 | NC1CC(=O)N(c2ccc(S(=O)(=O)N3CCN(c4cc(C(F)(F)c5cccnc5)cc(Cl)n4)CC3)cc2)C1 (stereo not drawn) [Example 90, 4-Amino-1-[4-[4-[6-chloro-4-[difluoro(3-pyridyl)methyl]-2-pyridyl]piperazin-1-yl]sulfonylphenyl]pyrrolidin-2-one] | 12.4 nM | 1.76 µg/mL (≈ 3.13 µM) | 1.76 µg/mL (≈ 3.13 µM)
7 | NC1CC(=O)N(c2ccc(S(=O)(=O)N3CCN(c4cc(C(F)(F)C5CCOC5)cc(Cl)n4)CC3)cc2)C1 (stereo not drawn) [Example 96, 4-Amino-1-[4-[4-[6-chloro-4-[difluoro(tetrahydrofuran-3-yl)methyl]-2-pyridyl]piperazin-1-yl]sulfonylphenyl]pyrrolidin-2-one] | 3.6 nM | 3.48 µg/mL (≈ 6.26 µM) | 1.74 µg/mL (≈ 3.13 µM)
8 | O=C1CC(N2C[C@@H](O)[C@@H](O)C2)CN1c1ccc(S(=O)(=O)N2CCN(c3cc(C(F)(F)F)cc(Cl)n3)CC2)cc1 (stereo partly drawn) [Example 48, 1-[4-[4-[6-Chloro-4-(trifluoromethyl)-2-pyridyl]piperazin-1-yl]sulfonylphenyl]-4-[(3S,4R)-3,4-dihydroxypyrrolidin-1-yl]pyrrolidin-2-one] | 6.78 nM | 1.84 µg/mL (≈ 3.12 µM) | 3.69 µg/mL (≈ 6.25 µM)
9 | O=C1CC(NC2CCNC2)CN1c1ccc(S(=O)(=O)N2CCN(c3cc(C(F)(F)F)cc(Cl)n3)CC2)cc1 (stereo not drawn) [Example 59, 1-[4-[4-[6-Chloro-4-(trifluoromethyl)-2-pyridyl]piperazin-1-yl]sulfonylphenyl]-4-(pyrrolidin-3-ylamino)pyrrolidin-2-one] | 96 nM | 3.81 µg/mL (≈ 6.65 µM) | 7.62 µg/mL (≈ 13.3 µM)
10 | NC1CC(=O)N(c2ccc(S(=O)(=O)N3CCN(c4cc(S(=O)(=O)C5CCOCC5)cc(Cl)n4)CC3)cc2)C1 (stereo not drawn) [Example 70, 4-Amino-1-[4-[4-(6-chloro-4-tetrahydropyran-4-ylsulfonyl-2-pyridyl)piperazin-1-yl]sulfonylphenyl]pyrrolidin-2-one] | 47.9 nM | 15.5 µg/mL (≈ 26.6 µM) | 15.5 µg/mL (≈ 26.6 µM)
11 | NC(=O)[C@H]1CC[C@H](C(F)(F)c2cc(Cl)nc(N3CCN(S(=O)(=O)c4ccc(N5C[C@H](N)CC5=O)cc4)CC3)c2)CC1 [Example 120, Trans-4-[[2-[4-[4-[(4R)-4-amino-2-oxo-pyrrolidin-1-yl]phenyl]sulfonylpiperazin-1-yl]-6-chloro-4-pyridyl]-difluoro-methyl]cyclohexanecarboxamide] | < 3.27 nM | 0.96 µg/mL (≈ 1.57 µM) | 0.48 µg/mL (≈ 0.785 µM)
12 | NC1CN(C2CC(=O)N(c3ccc(S(=O)(=O)N4CCN(c5cc(C(F)(F)F)cc(Cl)n5)CC4)cc3)C2)C1 (stereo not drawn) [Example 51, 4-(3-Aminoazetidin-1-yl)-1-[4-[4-[6-chloro-4-(trifluoromethyl)-2-pyridyl]piperazin-1-yl]sulfonylphenyl]pyrrolidin-2-one] | 53.7 nM | 3.78 µg/mL (≈ 6.76 µM) | 15.1 µg/mL (≈ 27.1 µM)
13 | CC1C(N)CC(=O)N1c1ccc(S(=O)(=O)N2CCN(c3cc(C(F)(F)F)cc(Cl)n3)CC2)cc1 (stereo not drawn) [Example 61, 4-Amino-1-[4-[4-[6-chloro-4-(trifluoromethyl)-2-pyridyl]piperazin-1-yl]sulfonylphenyl]-5-methyl-pyrrolidin-2-one] | 50.2 nM | 6.47 µg/mL (≈ 12.5 µM) | 6.47 µg/mL (≈ 12.5 µM)
14 | O=C1O[C@H]2CNC[C@H]2N1c1ccc(S(=O)(=O)N2CCN(c3cc(C(F)(F)F)cc(Cl)n3)CC2)cc1 [Example 15, (3aR,6aS)-3-[4-[4-[6-chloro-4-(trifluoromethyl)-2-pyridyl]piperazin-1-yl]sulfonylphenyl]-4,5,6,6a-tetrahydro-3aH-pyrrolo[3,4-d]oxazol-2-one] | 95.9 nM | 1.01 µg/mL (≈ 1.9 µM) | 2.02 µg/mL (≈ 3.8 µM)
15 | NCC1CN(CC2CN(c3ccc(S(=O)(=O)N4CCN(c5cc(C(F)(F)F)cc(Cl)n5)CC4)cc3)C(=O)O2)C1 (stereo not drawn) [Example 33, 5-[[3-(Aminomethyl)azetidin-1-yl]methyl]-3-[4-[4-[6-chloro-4-(trifluoromethyl)-2-pyridyl]piperazin-1-yl]sulfonylphenyl]oxazolidin-2-one] | 15.3 nM | 1.1 µg/mL (≈ 1.87 µM) | 2.2 µg/mL (≈ 3.73 µM)
16 | C=Cc1nc(N2CCN(S(=O)(=O)c3ccc(N4CC(N)CC4=O)cc3)CC2)cc(C(F)(F)c2ccccc2)n1 (stereo not drawn) [Example 84, 4-Amino-1-[4-[4-[6-[difluoro(phenyl)methyl]-2-vinyl-pyrimidin-4-yl]piperazin-1-yl]sulfonylphenyl]pyrrolidin-2-one] | 14.4 nM | 4.18 µg/mL (≈ 7.54 µM) | 16.7 µg/mL (≈ 30.1 µM)
17 | NC1CC(=O)N(c2ccc(S(=O)(=O)N3CCN(c4cc(C(F)(F)c5cnccn5)cc(Cl)n4)CC3)cc2)C1 (stereo not drawn) [Example 93, 4-Amino-1-[4-[4-[6-chloro-4-[difluoro(pyrazin-2-yl)methyl]-2-pyridyl]piperazin-1-yl]sulfonylphenyl]pyrrolidin-2-one] | 12.4 nM | 1.76 µg/mL (≈ 3.12 µM) | 1.76 µg/mL (≈ 3.12 µM)
18 | N[C@@H]1CN(C2CC(=O)N(c3ccc(S(=O)(=O)N4CCN(c5cc(C(F)(F)F)cc(Cl)n5)CC4)cc3)C2)C[C@H]1O (stereo partly drawn) [Example 56, 4-[(3R,4R)-3-amino-4-hydroxy-pyrrolidin-1-yl]-1-[4-[4-[6-chloro-4-(trifluoromethyl)-2-pyridyl]piperazin-1-yl]sulfonylphenyl]pyrrolidin-2-one] | 13.6 nM | 1.96 µg/mL (≈ 3.33 µM) | 3.91 µg/mL (≈ 6.64 µM)
19 | N[C@@H]1CC(=O)N(c2ccc(S(=O)(=O)N3CCN(c4cc(C(F)(F)[C@@H]5COCCO5)cc(Cl)n4)CC3)cc2)C1 [Example 102, (4R)-4-amino-1-[4-[4-[6-chloro-4-[[(2S)-1,4-dioxan-2-yl]-difluoro-methyl]-2-pyridyl]piperazin-1-yl]sulfonylphenyl]pyrrolidin-2-one] | 10.5 nM | 0.89 µg/mL (≈ 1.56 µM) | 0.89 µg/mL (≈ 1.56 µM)
20 | NC1CC(=O)N(c2ccc(S(=O)(=O)N3CCN(c4cc(Oc5ccccc5)cc(Cl)n4)CC3)cc2)C1 (stereo not drawn) [Example 72, 4-Amino-1-[4-[4-(6-chloro-4-phenoxy-2-pyridyl)piperazin-1-yl]sulfonylphenyl]pyrrolidin-2-one] | 407 nM | 7.06 µg/mL (≈ 13.4 µM) | 7.06 µg/mL (≈ 13.4 µM)
21 | N[C@@H]1CN(C2CC(=O)N(c3ccc(S(=O)(=O)N4CCN(c5cc(C(F)(F)F)cc(Cl)n5)CC4)cc3)C2)CC[C@H]1O (stereo partly drawn) [Example 57, 4-((3R,4R)-3-amino-4-hydroxypiperidin-1-yl)-1-(4-((4-(6-chloro-4-(trifluoromethyl)pyridin-2-yl)piperazin-1-yl)sulfonyl)phenyl)pyrrolidin-2-one] | 34.8 nM | 2 µg/mL (≈ 3.32 µM) | 2 µg/mL (≈ 3.32 µM)
22 | O=C1OC(CO)CN1c1ccc(S(=O)(=O)N2CCN(c3cc(C(F)(F)[C@@H]4CNCCO4)cc(Cl)n3)CC2)cc1 (stereo partly drawn) [Example 110, 3-[4-[4-[6-Chloro-4-[difluoro-[(2S)-morpholin-2-yl]methyl]-2-pyridyl]piperazin-1-yl]sulfonylphenyl]-5-(hydroxymethyl)oxazolidin-2-one] | 3.4 nM | 0.99 µg/mL (≈ 1.68 µM) | 0.99 µg/mL (≈ 1.68 µM)
23 | O=C1OC2(CNC2)CN1c1ccc(S(=O)(=O)N2CCN(c3cc(C(F)(F)F)cc(Cl)n3)CC2)cc1 [Example 13] | 128 nM | 0.83 µg/mL (≈ 1.56 µM) | 2.49 µg/mL (≈ 4.68 µM)
24 | N[C@@H]1CC(=O)N(c2ccc(S(=O)(=O)N3CCN(c4cc(C(F)(F)[C@H]5COCCO5)cc(Cl)n4)CC3)cc2)C1 [Example 103, (4R)-4-amino-1-[4-[4-[6-chloro-4-[[(2R)-1,4-dioxan-2-yl]-difluoro-methyl]-2-pyridyl]piperazin-1-yl]sulfonylphenyl]pyrrolidin-2-one] | 3.5 nM | 0.89 µg/mL (≈ 1.56 µM) | 0.89 µg/mL (≈ 1.56 µM)
